Assay type in all cases: cell-based
Holding throughout (details): fibroblast culture medium; H2O2 500 μM 24 hours, then test material (31, 32: 100 μg/ml) 48 hours; ELISA

One assay concerns PGE2 (Prostaglandin E2). Briefly: Test for inhibiting generation of PGE2 in H2O2-stimulated fibroblast (ELISA). As to the method: (§1) Fibroblast (PromoCell, Germany) was inoculated in a 6-well culturing plate at a concentration of 1×10^5 cells, and cultured in a 5% CO2 incubator at 37° C. for 24 hours. The well was treated with H2O2 500 μM and stimulated for 24 hours, and then were treated with quercetin3-O-[3-O″-(E)-p-coumaroyl][β-D-glucopyranosyl-(1→3)-O-α-L-rhamnopyranosyl-(1→6)-O-β-D-glucopyranoside] (‘New Material 31’) and quercetin3-O-[3-O″-(E)-p-coumaroyl][α-L-rhamnopyranosyl-(1→6)-O-β-D-glucopyranoside]) (‘New Material 32’) at a concentration of 100 μg/ml, respectively, and reacted for 48 hours. After the reaction was finished, the culture medium was collected and the ELISA analysis was performed. Herein, α-bisabolol, which is the material typically used as an anti-inflammatory agent and abirritant, was used as a control. As PGE2, a kit of Assay Design® was used, and as IL-6 and IL-8, a kit of Endogen® was used, and the test was carried out according to the methods prescribed in the manuals of the respective companies. (‘31’ refers to New Material 31, and ‘32’ refers to New Material 32) Inhibition effect={1−(test sample−control)/(H2O2−control)}×100 <Equation 1>

The test system of another assay is IL-8 (Interleukin 8). In words: Test for inhibiting generation of IL-8 in H2O2-stimulated fibroblast (ELISA). As to the method:
as §1

A further assay deals with IL-6 (Interleukin 6). Briefly: Test for inhibiting generation of IL-6 in H2O2-stimulated fibroblast (ELISA). As to the method: as §1

In the case of “α-bisabolol [a-bisabolol, reference compound]”, the PGE2 with PGE2 (Prostaglandin E2) was 205 pg/mL. In the assay with IL-8 (Interleukin 8), this substance gave an IL-8 of 200 pg/mL. In the assay on IL-6 (Interleukin 6), this substance had an IL-6 of 180 pg/mL.

For the origin of these results see US11197878B2, “Anti-inflammatory composition including novel quercetin-based compound” (AMOREPACIFIC CORPORATION, priority 2017, dated 2021).
